Tests used:
Format in all cases: in vivo
[1] = system: barnyardgrass (Echinochloa crus-galli); assay: Test A pre/postemergence
Procedure, shortened: (§1)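 Greenhouse herbicide test with preemergence directed soil spray and postemergence foliar spray at the 1- to 2-leaf stage; visual control rating 0–100 versus untreated at ~10 days.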

[2] = system: crabgrass (Digitaria sanguinalis); assay: Test A pre/postemergence
Procedure, shortened: as §1

[3] = system: giant foxtail (Setaria faberi); assay: Test A pre/postemergence
Procedure, shortened: as §1

[4] = system: morningglory (Ipomoea spp.); assay: Test A pre/postemergence
Procedure, shortened: as §1

[5] = system: redroot pigweed (Amaranthus retroflexus); assay: Test A pre/postemergence
Procedure, shortened: as §1

[6] = system: velvetleaf (Abutilon theophrasti); assay: Test A pre/postemergence
Procedure, shortened: as §1

[7] = system: barnyardgrass (Echinochloa crus-galli); assay: Test E flooded paddy water application; conditions: Flood, 21 days, scale 0 to 100 (0 no effect, 100 complete control)
Procedure, shortened: (§2)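 Greenhouse pots of Tama silt loam with weeds and rice at 2.0–2.5-leaf stage, flooded to 3 cm; compounds applied directly into paddy water, depth maintained. Visual rating versus untreated controls after 21 days, 0 (no effect) to 100 (complete control); 29.5/26.7 °C, 16-h photoperiod.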

[8] = system: bearded (brdd.) sprangletop (Leptochloa fusca ssp. fascicularis); assay: Test E flooded paddy water application; conditions: Flood, 21 days, scale 0 to 100 (0 no effect, 100 complete control)
Procedure, shortened: as §2

[9] = system: ducksalad (Heteranthera limosa); assay: Test E flooded paddy water application; conditions: Flood, 21 days, scale 0 to 100 (0 no effect, 100 complete control)
Procedure, shortened: as §2

[10] = system: early watergrass (Echinochloa oryzoides); assay: Test E flooded paddy water application; conditions: Flood, 21 days, scale 0 to 100 (0 no effect, 100 complete control)
Procedure, shortened: as §2

[11] = system: junglerice (Echinochloa colona); assay: Test E flooded paddy water application; conditions: Flood, 21 days, scale 0 to 100 (0 no effect, 100 complete control)
Procedure, shortened: as §2

[12] = system: late watergrass (Echinochloa oryzicola); assay: Test E flooded paddy water application; conditions: Flood, 21 days, scale 0 to 100 (0 no effect, 100 complete control)
Procedure, shortened: as §2

[13] = system: purple redstem (Ammannia coccinea); assay: Test E flooded paddy water application; conditions: Flood, 21 days, scale 0 to 100 (0 no effect, 100 complete control)
Procedure, shortened: as §2

[14] = system: rice flatsedge (Cyperus iria); assay: Test E flooded paddy water application; conditions: Flood, 21 days, scale 0 to 100 (0 no effect, 100 complete control)
Procedure, shortened: as §2

[15] = system: smallflower umbrella sedge (Cyperus difformis); assay: Test E flooded paddy water application; conditions: Flood, 21 days, scale 0 to 100 (0 no effect, 100 complete control)
Procedure, shortened: as §2

[16] = system: transplanted rice seedlings (Oryza sativa cv. ‘Japonica-M202’); assay: Test E flooded paddy water application; conditions: Flood, 21 days, scale 0 to 100 (0 no effect, 100 complete control)
Procedure, shortened: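 Response scored visually on a 0–100 scale (100 = complete control) at 21 days against untreated pots. Treatment was into paddy water 3 cm deep over silt loam, with plants at the 2.0–2.5-leaf stage, grown under 16-h light at 29.5/26.7 °C day/night.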

[17] = system: water seeded rice seedlings (Oryza sativa cv. ‘Japonica-M202’); assay: Test E flooded paddy water application; conditions: Flood, 21 days, scale 0 to 100 (0 no effect, 100 complete control)
Procedure, shortened: as §2

[18] = Postemergence, 125 g ai/ha, 0 to 100 scale (0 no effect, 100 complete control)
[19] = Postemergence, 500 g ai/ha, 0 to 100 scale (0 no effect, 100 complete control)
[20] = Preemergence, 125 g ai/ha, 0 to 100 scale where 0 is no effect and 100 is complete control, approximately ten days
[21] = Preemergence, 500 g ai/ha, 0 to 100 scale where 0 is no effect and 100 is complete control, approximately ten days

## CNc1nc(-c2ccc(Cl)cc2)nc(C(=O)OC)c1Cl [Compound 111]
[1]; [18]
  Plant response rating, Barnyardgrass: 0
[1]; [19]
  Plant response rating, Barnyardgrass: 10
[1]; [20]
  Plant response rating, Barnyardgrass: 0
[1]; [21]
  Plant response rating, Barnyardgrass: 0
[2]; [18]
  Plant response rating, Crabgrass: 5
[2]; [19]
  Plant response rating, Crabgrass: 30
[2]; [20]
  Plant response rating, Crabgrass: 0
[2]; [21]
  Plant response rating, Crabgrass: 0
[3]; [18]
  Plant response rating, Foxtail, Giant: 0
[3]; [19]
  Plant response rating, Foxtail, Giant: 0
[3]; [20]
  Plant response rating, Foxtail, Giant: 0
[3]; [21]
  Plant response rating, Foxtail, Giant: 0
[4]; [18]
  Plant response rating, Morningglory: 20
[4]; [19]
  Plant response rating, Morningglory: 50
[4]; [20]
  Plant response rating, Morningglory: 0
[4]; [21]
  Plant response rating, Morningglory: 0
[5]; [18]
  Plant response rating, Pigweed: 55
[5]; [19]
  Plant response rating, Pigweed: 85
[5]; [20]
  Plant response rating, Pigweed: 0
[5]; [21]
  Plant response rating, Pigweed: 0
[6]; [18]
  Plant response rating, Velvetleaf: 75
[6]; [19]
  Plant response rating, Velvetleaf: 85
[6]; [20]
  Plant response rating, Velvetleaf: 0
[6]; [21]
  Plant response rating, Velvetleaf: 0
[7]; 32 g ai/ha
  Barnyardgrass plant response rating: 0
[7]; 64 g ai/ha
  Barnyardgrass plant response rating: 0
[7]; 125 g ai/ha
  Barnyardgrass plant response rating: 0
[7]; 250 g ai/ha
  Barnyardgrass plant response rating: 0
[7]; 16 g ai/ha
  Plant response rating, Barnyardgrass: 0
[8]; 32 g ai/ha
  Sprangletop, Brdd. plant response rating: 0
[8]; 64 g ai/ha
  Sprangletop, Brdd. plant response rating: 0
[8]; 125 g ai/ha
  Sprangletop, Brdd. plant response rating: 0
[8]; 250 g ai/ha
  Sprangletop, Brdd. plant response rating: 0
[8]; 16 g ai/ha
  Plant response rating, Sprangletop, Brdd.: 0
[9]; 32 g ai/ha
  Ducksalad plant response rating: 0
[9]; 64 g ai/ha
  Ducksalad plant response rating: 85
[9]; 125 g ai/ha
  Ducksalad plant response rating: 100
[9]; 250 g ai/ha
  Ducksalad plant response rating: 100
[9]; 16 g ai/ha
  Plant response rating, Ducksalad: 0
[10]; 32 g ai/ha
  Watergrass, Early plant response rating: 0
[10]; 64 g ai/ha
  Watergrass, Early plant response rating: 0
[10]; 125 g ai/ha
  Watergrass, Early plant response rating: 0
[10]; 250 g ai/ha
  Watergrass, Early plant response rating: 0
[10]; 16 g ai/ha
  Plant response rating, Watergrass, Early: 0
[11]; 32 g ai/ha
  Junglerice plant response rating: 0
[11]; 64 g ai/ha
  Junglerice plant response rating: 0
[11]; 125 g ai/ha
  Junglerice plant response rating: 0
[11]; 250 g ai/ha
  Junglerice plant response rating: 0
[11]; 16 g ai/ha
  Plant response rating, Junglerice: 0
[12]; 32 g ai/ha
  Watergrass, Late plant response rating: 0
[12]; 64 g ai/ha
  Watergrass, Late plant response rating: 0
[12]; 125 g ai/ha
  Watergrass, Late plant response rating: 0
[12]; 250 g ai/ha
  Watergrass, Late plant response rating: 0
[12]; 16 g ai/ha
  Plant response rating, Watergrass, Late: 0
[13]; 32 g ai/ha
  Redstem plant response rating: 20
[13]; 64 g ai/ha
  Redstem plant response rating: 30
[13]; 125 g ai/ha
  Redstem plant response rating: 30
[13]; 250 g ai/ha
  Redstem plant response rating: 75
[13]; 16 g ai/ha
  Plant response rating, Redstem: 0
[14]; 32 g ai/ha
  Flatsedge, Rice plant response rating: 0
[14]; 64 g ai/ha
  Flatsedge, Rice plant response rating: 0
[14]; 125 g ai/ha
  Flatsedge, Rice plant response rating: 0
[14]; 250 g ai/ha
  Flatsedge, Rice plant response rating: 0
[14]; 16 g ai/ha
  Plant response rating, Flatsedge, Rice: 0
[15]; 32 g ai/ha
  Sedge, Umbrella plant response rating: 0
[15]; 64 g ai/ha
  Sedge, Umbrella plant response rating: 0
[15]; 125 g ai/ha
  Sedge, Umbrella plant response rating: 0
[15]; 250 g ai/ha
  Sedge, Umbrella plant response rating: 75
[15]; 16 g ai/ha
  Plant response rating, Sedge, Umbrella: 0
[16]; 32 g ai/ha
  Rice, Transplanted plant response rating: 0
[16]; 64 g ai/ha
  Rice, Transplanted plant response rating: 0
[16]; 125 g ai/ha
  Rice, Transplanted plant response rating: 0
[16]; 250 g ai/ha
  Rice, Transplanted plant response rating: 0
[16]; 16 g ai/ha
  Plant response rating, Rice, Transplanted: 0
[17]; 32 g ai/ha
  Rice, Water Seeded plant response rating: 0
[17]; 64 g ai/ha
  Rice, Water Seeded plant response rating: 0
[17]; 125 g ai/ha
  Rice, Water Seeded plant response rating: 0
[17]; 250 g ai/ha
  Rice, Water Seeded plant response rating: 0
[17]; 16 g ai/ha
  Plant response rating, Rice, Water Seeded: 0
